Data as given in patent publication US20210255193A1, “LYSINE REACTIVE PROBES AND USES THEREOF” (The Scripps Research Institute, priority 2017, published 2021).

Columns and labels:
Assay in all cases: competitive isoTOP-ABPP
Type in all cases: binding
[1] = target: T1, WARS Tryptophan--tRNA ligase, cytoplasmic (Homo sapiens, UniProt P23381); details: 50 uM, 231 sol, in vitro; for R value (DMSO/fragment) for probe 1 labeling: P23381_K256
T1 construct: isoTOP-ABPP experiments performed in cell lysates (in vitro); endogenous in cells; host or cells: soluble proteome of human cancer cell lines (MDA-MB-231; Ramos and Jurkat also prepared)
T1 sequence (P23381 1-471): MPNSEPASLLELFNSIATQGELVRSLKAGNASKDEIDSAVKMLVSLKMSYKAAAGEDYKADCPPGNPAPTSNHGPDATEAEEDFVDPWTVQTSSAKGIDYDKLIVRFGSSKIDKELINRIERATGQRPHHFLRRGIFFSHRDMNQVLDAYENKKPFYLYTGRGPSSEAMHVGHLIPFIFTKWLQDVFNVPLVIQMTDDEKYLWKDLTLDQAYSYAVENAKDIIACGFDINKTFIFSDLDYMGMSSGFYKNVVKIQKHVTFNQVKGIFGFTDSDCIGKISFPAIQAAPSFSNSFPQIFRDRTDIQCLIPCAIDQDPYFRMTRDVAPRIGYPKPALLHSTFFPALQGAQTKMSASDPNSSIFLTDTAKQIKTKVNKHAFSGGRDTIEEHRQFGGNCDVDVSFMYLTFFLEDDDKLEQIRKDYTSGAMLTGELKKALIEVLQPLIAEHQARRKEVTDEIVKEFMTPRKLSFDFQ
Outline: (§1)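 Cell lysate treated in vitro with fragments (50 μM activated esters, 100 μM guanidinylating agents) or DMSO, labelled 1 h at ambient temperature with 0.1 mM STP-alkyne, CuAAC-tagged with light/heavy TEV tags, analysed by MS. R = DMSO/compound MS1 peak-area ratio; lysines with R≥4 called liganded.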

[2] = target: T2, XRCC6 X-ray repair cross-complementing protein 6 (Homo sapiens, UniProt P12956); details: 50 uM, 231 sol, in vitro; for R value (DMSO/fragment) for probe 1 labeling: P12956_K351
T2 construct: isoTOP-ABPP experiments performed in cell lysates (in vitro); endogenous in cells; host or cells: soluble proteome of human cancer cell lines (MDA-MB-231; Ramos and Jurkat also prepared)
T2 sequence (P12956 2-609 limits assumed): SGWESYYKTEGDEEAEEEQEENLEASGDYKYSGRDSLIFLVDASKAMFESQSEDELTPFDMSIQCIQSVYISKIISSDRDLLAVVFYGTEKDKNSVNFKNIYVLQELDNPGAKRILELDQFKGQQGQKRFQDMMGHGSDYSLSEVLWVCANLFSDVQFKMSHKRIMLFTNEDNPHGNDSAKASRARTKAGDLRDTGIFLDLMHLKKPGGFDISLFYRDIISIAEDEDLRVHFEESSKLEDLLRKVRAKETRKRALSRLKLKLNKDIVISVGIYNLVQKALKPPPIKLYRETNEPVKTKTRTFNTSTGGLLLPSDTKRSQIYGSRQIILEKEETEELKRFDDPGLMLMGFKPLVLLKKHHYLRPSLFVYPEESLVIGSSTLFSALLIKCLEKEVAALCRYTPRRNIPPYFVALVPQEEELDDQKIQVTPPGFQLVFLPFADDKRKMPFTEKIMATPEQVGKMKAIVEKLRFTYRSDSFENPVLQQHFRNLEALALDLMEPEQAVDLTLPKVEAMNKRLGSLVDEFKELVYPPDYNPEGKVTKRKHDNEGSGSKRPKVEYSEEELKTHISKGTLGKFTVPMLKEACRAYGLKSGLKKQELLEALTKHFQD
T2 sequence (P13010 2-732 partner limits assumed): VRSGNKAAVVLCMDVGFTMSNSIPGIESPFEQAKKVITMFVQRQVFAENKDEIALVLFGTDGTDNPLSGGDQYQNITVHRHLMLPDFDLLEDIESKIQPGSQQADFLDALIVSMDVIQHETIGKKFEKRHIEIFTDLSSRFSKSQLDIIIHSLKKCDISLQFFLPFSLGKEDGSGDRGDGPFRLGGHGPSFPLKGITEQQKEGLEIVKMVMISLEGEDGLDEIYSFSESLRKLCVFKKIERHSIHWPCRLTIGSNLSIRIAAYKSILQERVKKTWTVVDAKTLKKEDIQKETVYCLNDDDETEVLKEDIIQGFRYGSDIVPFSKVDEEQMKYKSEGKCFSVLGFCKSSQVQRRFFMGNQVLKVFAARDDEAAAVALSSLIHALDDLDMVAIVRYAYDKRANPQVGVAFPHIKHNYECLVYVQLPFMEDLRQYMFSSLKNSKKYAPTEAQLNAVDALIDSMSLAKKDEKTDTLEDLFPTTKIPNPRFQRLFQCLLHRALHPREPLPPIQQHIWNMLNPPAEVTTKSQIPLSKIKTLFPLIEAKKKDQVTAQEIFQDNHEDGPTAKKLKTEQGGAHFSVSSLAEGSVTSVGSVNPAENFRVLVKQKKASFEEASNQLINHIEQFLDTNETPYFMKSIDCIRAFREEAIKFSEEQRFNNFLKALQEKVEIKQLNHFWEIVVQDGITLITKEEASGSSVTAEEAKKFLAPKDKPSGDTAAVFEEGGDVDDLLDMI
Outline: as §1

[3] = target: T3, NAA25 N-alpha-acetyltransferase 25, NatB auxiliary subunit (Homo sapiens, UniProt Q14CX7); details: 50 uM, 231 sol, in vitro; for R value (DMSO/fragment) for probe 1 labeling: Q14CX7_K575
T3 construct: isoTOP-ABPP experiments performed in cell lysates (in vitro); endogenous in cells; host or cells: soluble proteome of human cancer cell lines (MDA-MB-231; Ramos and Jurkat also prepared)
T3 sequence (Q14CX7 whole entry, the tested form may be a part): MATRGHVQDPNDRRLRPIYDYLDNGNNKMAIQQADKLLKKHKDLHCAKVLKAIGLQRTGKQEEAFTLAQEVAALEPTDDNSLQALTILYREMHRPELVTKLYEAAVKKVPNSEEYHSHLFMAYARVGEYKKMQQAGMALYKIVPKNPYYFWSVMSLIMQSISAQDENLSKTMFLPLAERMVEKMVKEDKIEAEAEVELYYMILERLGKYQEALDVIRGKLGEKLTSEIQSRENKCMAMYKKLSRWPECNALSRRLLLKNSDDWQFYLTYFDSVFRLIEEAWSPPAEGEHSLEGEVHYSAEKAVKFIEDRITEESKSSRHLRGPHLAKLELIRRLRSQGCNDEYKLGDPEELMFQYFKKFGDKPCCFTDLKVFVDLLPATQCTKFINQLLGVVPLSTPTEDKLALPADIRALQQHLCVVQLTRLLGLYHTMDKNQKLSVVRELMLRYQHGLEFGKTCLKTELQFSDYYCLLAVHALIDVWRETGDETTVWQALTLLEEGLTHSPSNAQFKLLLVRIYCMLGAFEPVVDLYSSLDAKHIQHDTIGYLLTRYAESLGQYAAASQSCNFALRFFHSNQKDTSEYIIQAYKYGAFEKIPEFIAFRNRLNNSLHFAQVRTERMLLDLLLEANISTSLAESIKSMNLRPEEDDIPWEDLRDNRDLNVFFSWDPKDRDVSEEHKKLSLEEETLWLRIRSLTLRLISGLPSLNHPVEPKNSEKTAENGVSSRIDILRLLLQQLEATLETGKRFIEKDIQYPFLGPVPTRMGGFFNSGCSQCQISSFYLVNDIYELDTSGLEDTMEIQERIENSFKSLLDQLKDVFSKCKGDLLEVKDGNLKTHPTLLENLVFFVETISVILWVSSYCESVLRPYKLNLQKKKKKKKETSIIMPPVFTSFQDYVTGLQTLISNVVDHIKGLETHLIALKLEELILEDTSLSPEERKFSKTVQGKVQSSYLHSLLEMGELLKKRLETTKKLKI
Outline: as §1

CUL2 Cullin-2 = target: T4, CUL2 Cullin-2 (Homo sapiens, UniProt Q13617); details: 50 uM, 231 sol, in vitro; for R value (DMSO/fragment) for probe 1 labeling: Q13617_K489
T4 construct: isoTOP-ABPP experiments performed in cell lysates (in vitro); endogenous in cells; host or cells: soluble proteome of human cancer cell lines (MDA-MB-231, Ramos, Jurkat)
T4 sequence (Q13617 whole entry, the tested form may be a part): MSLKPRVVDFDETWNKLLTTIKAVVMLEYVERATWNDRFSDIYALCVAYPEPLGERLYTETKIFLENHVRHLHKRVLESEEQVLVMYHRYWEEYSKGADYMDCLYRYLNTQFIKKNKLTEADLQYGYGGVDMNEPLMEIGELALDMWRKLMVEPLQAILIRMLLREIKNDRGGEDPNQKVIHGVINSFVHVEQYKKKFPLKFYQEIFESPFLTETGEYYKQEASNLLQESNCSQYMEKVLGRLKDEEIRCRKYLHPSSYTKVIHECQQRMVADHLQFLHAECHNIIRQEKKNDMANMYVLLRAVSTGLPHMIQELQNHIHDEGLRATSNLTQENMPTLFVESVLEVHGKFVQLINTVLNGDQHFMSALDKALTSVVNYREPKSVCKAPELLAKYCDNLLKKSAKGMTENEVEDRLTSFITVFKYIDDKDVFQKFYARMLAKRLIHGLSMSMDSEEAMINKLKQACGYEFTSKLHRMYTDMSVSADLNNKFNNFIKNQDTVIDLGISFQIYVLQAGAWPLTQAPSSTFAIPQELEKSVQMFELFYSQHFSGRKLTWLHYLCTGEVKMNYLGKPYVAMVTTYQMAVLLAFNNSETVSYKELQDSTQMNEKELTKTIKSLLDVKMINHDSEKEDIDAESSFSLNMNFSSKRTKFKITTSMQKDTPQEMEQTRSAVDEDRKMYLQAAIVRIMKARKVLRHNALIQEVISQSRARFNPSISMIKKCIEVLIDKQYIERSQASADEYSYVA
Outline: as §1

[4] = target: T5, G6PD Glucose-6-phosphate 1-dehydrogenase (Homo sapiens, UniProt P11413); details: 50 uM, 231 sol, in vitro; for R value (DMSO/fragment) for probe 1 labeling: P11413_K171
T5 construct: isoTOP-ABPP experiments performed in cell lysates (in vitro); endogenous in cells; host or cells: MDA-MB-231 soluble lysate
T5 sequence (P11413 whole entry, the tested form may be a part): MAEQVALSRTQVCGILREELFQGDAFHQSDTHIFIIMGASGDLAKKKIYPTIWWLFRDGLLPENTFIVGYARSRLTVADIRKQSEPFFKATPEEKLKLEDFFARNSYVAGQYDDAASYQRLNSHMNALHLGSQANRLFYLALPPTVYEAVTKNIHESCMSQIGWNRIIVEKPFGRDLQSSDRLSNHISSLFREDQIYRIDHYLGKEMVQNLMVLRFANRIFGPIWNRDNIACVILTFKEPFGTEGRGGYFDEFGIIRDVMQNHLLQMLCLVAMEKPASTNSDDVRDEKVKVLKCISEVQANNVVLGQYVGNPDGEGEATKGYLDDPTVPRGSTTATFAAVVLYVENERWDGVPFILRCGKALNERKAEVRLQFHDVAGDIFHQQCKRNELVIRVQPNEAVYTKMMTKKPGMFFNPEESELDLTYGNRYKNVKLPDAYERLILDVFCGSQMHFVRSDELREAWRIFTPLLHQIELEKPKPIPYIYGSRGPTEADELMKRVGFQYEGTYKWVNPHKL
Outline: as §1

OLA1 Obg-like ATPase 1 = target: T6, OLA1 Obg-like ATPase 1 (Homo sapiens, UniProt Q9NTK5); details: 50 uM, 231 sol, in vitro; for R value (DMSO/fragment) for probe 1 labeling: Q9NTK5_K248
T6 construct: endogenous in cells; host or cells: MDA-MB-231 (soluble fraction of lysate)
Outline: as §1

[5] = target: T7, TRMT10C Mitochondrial ribonuclease P protein 1 (Homo sapiens, UniProt Q7L0Y3); details: 50 uM, 231 sol, in vitro; for R value (DMSO/fragment) for probe 1 labeling: Q7L0Y3_K325
T7 construct: isoTOP-ABPP experiments performed in cell lysates (in vitro); endogenous in cells; host or cells: soluble proteome of human cancer cell lines (MDA-MB-231; Ramos and Jurkat also prepared)
T7 sequence (Q7L0Y3 40-403): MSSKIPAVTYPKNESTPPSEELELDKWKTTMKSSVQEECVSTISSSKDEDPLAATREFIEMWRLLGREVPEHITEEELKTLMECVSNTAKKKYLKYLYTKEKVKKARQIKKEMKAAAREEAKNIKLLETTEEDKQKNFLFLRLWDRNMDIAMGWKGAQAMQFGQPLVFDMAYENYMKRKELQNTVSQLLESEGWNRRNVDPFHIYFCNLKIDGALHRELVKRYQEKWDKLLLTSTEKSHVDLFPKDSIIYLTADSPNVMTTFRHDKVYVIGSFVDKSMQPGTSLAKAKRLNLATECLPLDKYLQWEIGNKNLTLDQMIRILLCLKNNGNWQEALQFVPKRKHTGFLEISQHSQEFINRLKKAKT
Outline: as §1

SMILES	R value (DMSO/fragment) for probe 1 labeling [1]	R value (DMSO/fragment) for probe 1 labeling [2]	R value (DMSO/fragment) for probe 1 labeling [3]	R value (DMSO/fragment) for probe 1 labeling (CUL2 Cullin-2)	R value (DMSO/fragment) for probe 1 labeling [4]	R value (DMSO/fragment) for probe 1 labeling (OLA1 Obg-like ATPase 1)	R value (DMSO/fragment) for probe 1 labeling [5]	isoTOP-ABPP reactivity ratio at lysine P23381_K256 [1]	isoTOP-ABPP reactivity ratio at lysine P12956_K351 [2]	isoTOP-ABPP reactivity ratio at lysine Q14CX7_K575 [3]	isoTOP-ABPP reactivity ratio at lysine Q13617_K489 (CUL2 Cullin-2)	isoTOP-ABPP reactivity ratio at lysine P11413_K171 [4]	isoTOP-ABPP reactivity ratio at lysine Q9NTK5_K248 (OLA1 Obg-like ATPase 1)	isoTOP-ABPP reactivity ratio at lysine Q7L0Y3_K325 [5]
O=C(Oc1c(F)c(F)c(F)c(F)c1F)C(c1ccccc1)c1ccccc1 [fragment 20, Pentafluorophenyl 2,2-diphenylacetate]	1.3	2.3	1.1	0.8	0.7	0.9	1.1	–	–	–	–	–	–	–
O=C(Oc1c(F)c(F)c(F)c(F)c1F)c1ccc2ccccc2n1 [fragment 25, Pentafluorophenyl quinoline-2-carboxylate]	–	–	–	–	–	–	–	4.4	1.6	0.9	1.1	0.8	1.0	1.1
O=C(CCc1cn(-c2ccccc2)nc1-c1ccccc1)Oc1ccc([N+](=O)[O-])cc1[N+](=O)[O-] [fragment 29, 2,4-Dinitrophenyl 3-(1,3-diphenyl-1H-pyrazol-4-yl)propanoate]	–	–	–	–	–	–	–	0.9	3.2	1.1	1.2	0.9	0.9	0.7
O=C(Oc1ccc([N+](=O)[O-])cc1[N+](=O)[O-])C(c1ccccc1)c1ccccc1 [fragment 30, 2,4-Dinitrophenyl 2,2-diphenylacetate]	–	–	–	–	–	–	–	1.1	20.0	4.7	1.1	3.9	1.0	1.1
O=C(Oc1ccc([N+](=O)[O-])cc1[N+](=O)[O-])c1cc(C(F)(F)F)cc(C(F)(F)F)c1 [fragment 31, 2,4-Dinitrophenyl 3,5-bis(trifluoromethyl)benzoate]	–	–	–	–	–	–	–	0.9	2.6	1.2	1.1	1.1	1.0	1.1

The next lines start with results.

R value (DMSO/fragment) for probe 1 labeling [1]	R value (DMSO/fragment) for probe 1 labeling [2]	R value (DMSO/fragment) for probe 1 labeling [3]	R value (DMSO/fragment) for probe 1 labeling (CUL2 Cullin-2)	R value (DMSO/fragment) for probe 1 labeling [4]	R value (DMSO/fragment) for probe 1 labeling (OLA1 Obg-like ATPase 1)	R value (DMSO/fragment) for probe 1 labeling [5]	SMILES	isoTOP-ABPP reactivity ratio at lysine P23381_K256 [1]	isoTOP-ABPP reactivity ratio at lysine P12956_K351 [2]	isoTOP-ABPP reactivity ratio at lysine Q14CX7_K575 [3]	isoTOP-ABPP reactivity ratio at lysine Q13617_K489 (CUL2 Cullin-2)	isoTOP-ABPP reactivity ratio at lysine P11413_K171 [4]	isoTOP-ABPP reactivity ratio at lysine Q9NTK5_K248 (OLA1 Obg-like ATPase 1)	isoTOP-ABPP reactivity ratio at lysine Q7L0Y3_K325 [5]
1.1	1.4	0.9	0.9	0.8	1.0	0.9	O=C(Oc1c(F)c(F)c(F)c(F)c1F)c1cc(C(F)(F)F)cc(C(F)(F)F)c1 [fragment 21, Pentafluorophenyl 3,5-bis(trifluoromethyl)benzoate]	–	–	–	–	–	–	–
1.0	3.6	2.2	1.0	0.7	1.0	1.1	Cn1cc(CC(=O)Oc2c(F)c(F)c(F)c(F)c2F)c2ccccc21 [fragment 22, Pentafluorophenyl 2-(1-methyl-1H-indol-3-yl)acetate]	–	–	–	–	–	–	–
